According to paper PMC8510290, “Fishing of α-Glucosidase’s Ligands from Aloe vera by α-Glucosidase Functionalized Magnetic Nanoparticles” (Molecules, 2021):

Molecular target: T1, α-glucosidase (Saccharomyces cerevisiae, UniProt P53341)
T1 construct: gene MAL12
Experiment: p-NPG hydrolysis assay (activation, maximal effect ratio) with purified enzyme; also fished out by enzyme-immobilized magnetic nanoparticles
Format: biochemical

T1 sequence (P53341 whole entry): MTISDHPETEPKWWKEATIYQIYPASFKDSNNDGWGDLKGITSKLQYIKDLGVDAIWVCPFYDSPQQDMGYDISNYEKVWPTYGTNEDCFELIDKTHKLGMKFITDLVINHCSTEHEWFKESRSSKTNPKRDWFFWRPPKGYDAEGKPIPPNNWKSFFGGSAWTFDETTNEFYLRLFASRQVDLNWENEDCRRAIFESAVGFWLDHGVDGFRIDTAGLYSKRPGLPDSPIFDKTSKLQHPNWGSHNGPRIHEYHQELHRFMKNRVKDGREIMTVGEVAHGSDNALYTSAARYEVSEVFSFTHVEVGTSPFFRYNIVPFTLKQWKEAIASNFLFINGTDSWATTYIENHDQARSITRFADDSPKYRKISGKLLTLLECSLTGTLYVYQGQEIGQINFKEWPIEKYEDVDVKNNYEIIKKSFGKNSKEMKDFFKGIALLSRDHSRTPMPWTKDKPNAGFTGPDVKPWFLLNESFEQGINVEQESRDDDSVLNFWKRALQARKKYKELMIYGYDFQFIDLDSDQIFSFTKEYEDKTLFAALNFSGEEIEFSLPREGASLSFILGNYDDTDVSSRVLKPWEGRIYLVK

SMILES	Emax [%]
COc1cc(-c2c(C)cc(O)cc2O)oc(=O)c1 [compound 1, aloenin aglycone]	26.4 ± 0.8
CC(=O)c1c(C[C@@H]2Cc3cc(O)cc(O)c3C(=O)O2)cc(O)cc1O[C@@H]1O[C@H](CO)[C@@H](O)[C@H](OC(=O)/C=C/c2ccc(O)cc2)[C@H]1O [compound 2, aloeacone]	17.8 ± 0.3
